Measured values as given in patent publication US12161689B2, “Anti-infective formulations” (NEW MEXICO TECH UNIVERSITY RESEARCH PARK CORPORATION, priority 2018, dated 2024).
Where a SMILES comes first, the peptide text is derived from it. Bridges are numbered along the chain shown (N, C = ends). [ ]: non-standard residue; d: D form. The star is where a group is joined. Ileψ(thiazoline)Cys = CC[C@H](C)[C@H](N)C1=N[C@H](C(=O)*)CS1; dOrn = NCCC[C@@H](N)C(=O)O

Tests used:
red blood cells = experiment: Hemolysis on blood agar plate; conditions: 5 μL spotted; refrigerated overnight
[1] = tested on: Mycobacterium abscessus (ATCC 19977); experiment: Spot on lawn, MHA plate: killing / diameter of clearance; format: cell-based; parameters: key: “+” indicates antibacterial activity with complete clearing; “−” indicates no antibacterial activity; conditions: 10 μL spot, 24 to 48 hours at 37° C.
[2] = tested on: Escherichia coli (O157:H7) (ATCC 51657); experiment: as above; format: cell-based; parameters: key to antibacterial activity: “+” indicates antibacterial activity with complete clearing; “−” indicates no antibacterial activity; conditions: for antibacterial activity: 24 to 48 hours at 37° C.
[3] = tested on: multi-drug resistant Pseudomonas aeruginosa (ATCC 2114); experiment: as above; format: cell-based; conditions: 10 μL spot; for antibacterial activity: 24 to 48 hours at 37° C.
[4] = tested on: multi-drug resistant Acinetobacter baumannii (ATCC 1797); experiment: as above; format: cell-based; conditions: 10 μL spot; for antibacterial activity: 24 to 48 hours at 37° C.
[5] = tested on: multi-drug-resistant E. coli CDC AR0493; experiment: Spot on lawn, MHA plate: killing; format: cell-based; conditions: 10 μL spot, 24 to 48 hours at 37° C.
[6] = tested on: Vancomycin-resistant enterococcus (VRE) (ATCC 51299); experiment: Spot on lawn, MHA plate: killing / diameter of clearance; format: cell-based; parameters: key to antibacterial activity: “+” indicates antibacterial activity with complete clearing; “−” indicates no antibacterial activity; conditions: 10 μL spot; for antibacterial activity: 24 to 48 hours at 37° C.
MRSA (ATCC BAA44) = experiment: as above; format: cell-based, Staphylococcus aureus; conditions: for antibacterial activity: 24 to 48 hours at 37° C.
Yesenia pestis (Kimo 6) = format: cell-based, Yersinia pestis; conditions: 10 μL spot; for antibacterial activity: Yersinia pestis KIM6, 24 to 48 hours at 37° C.; for efficacy against Yesenia pestis (Kimo 6), comparison with antibiotics: incubation period of 1 day
[7] = tested on: Stenotrophomonas maltophilia (ATCC 13637); experiment: Spot on lawn, MHA plate: killing / diameter of clearance; format: cell-based; parameters: key: “+” indicates antibacterial activity with complete clearing; “−” indicates no antibacterial activity; conditions: S. maltophilia (ATCC 13637); 10 μL spot; 24 to 48 hours at 37° C.
Streptococcus pyogenes = experiment: as above; format: cell-based; parameters: key to antibacterial activity: “+” indicates antibacterial activity with complete clearing; “−” indicates no antibacterial activity; conditions: for antibacterial activity / killing of Streptococcus pyogenes: 10 μL spot; for antibacterial activity: 24 to 48 hours at 37° C.; for killing of Streptococcus pyogenes: incubation period of 1 day; for killing of S. pyogenes: after 7 days of incubation
[8] = tested on: CRE NDM-1 MDR (ATCC BAA 2146); experiment: as above; format: cell-based, Enterobacteriaceae; parameters: key to antibacterial activity: “+” indicates antibacterial activity with complete clearing; “−” indicates no antibacterial activity; conditions: for antibacterial activity: 24 to 48 hours at 37° C.
[9] = tested on: multi-drug resistant E. coli (AR 0348); experiment: Spot on lawn, MHA plate: killing; format: cell-based; conditions: 10 μL; 1 day at 37° C.
Description: An overnight growth of multi-drug resistant E. coli (AR 0348) was made in MHB. The samples were diluted 1:1000, and spread onto a MHA plate.

MRSA BAA-1717 (USA 300) = experiment: Spot on lawn, MHA plate: killing / diameter of clearance; conditions: 10 μL; overnight at 37° C. (FIG. 63)
[10] = tested on: multi-drug resistant E. coli (AR 0346); experiment: Spot on lawn, MHA plate: killing; format: cell-based; conditions: 10 μL; 3 days at 37° C.
Description: An overnight growth of multi-drug resistant E. coli (AR 0346) was made in MHB. The samples were diluted 1:1000, and spread onto a MHA plate.

[11] = tested on: multi-drug resistant Burkholderia cepacia (ATCC 10856); experiment: Spot on lawn, MHA plate: killing / diameter of clearance; format: cell-based; conditions: for killing of multi-drug resistant Burkholderia cepacia: 10 μL, overnight at 37° C. (FIG. 63); for antibacterial activity: 10 μL spot, 24 to 48 hours at 37° C.
[12] = tested on: Bacillus subtilis (ATCC 6633); experiment: as above; format: cell-based; conditions: 10 μL spot; incubation period of 1 day
MCR-1 E. coli (AR 0350) = experiment: Spot on lawn, MHA plate: killing; format: cell-based; conditions: 10 μL drops; 1 day at 37° C.
Source text: An overnight growth of MCR-1 E. coli (AR 0350) was made in MHB, and was spread undiluted onto a MHA plate.

[13] = tested on: Shigella flexneri 85W 2332; experiment: Spot on lawn, MHA plate: killing; format: cell-based; conditions: 10 μL spot, 24 to 48 hours at 37° C.
[14] = tested on: Salmonella enteriditis CDC AR0496; experiment: Spot on lawn, MHA plate: killing; format: cell-based; conditions: 10 μL spot, 24 to 48 hours at 37° C.
[15] = Mycobacterium abscessus ATCC19977
[16] = E. Coli (O157:H7) (ATCC 51657), 10 μL spot
[17] = Streptococcus pyogenes 85W 1180
[18] = CRE NDM-1 (MDR) ATCC BAA-2146, 10 μL spot
[19] = CRE NDM-1 MDR (ATCC BAA 2146), 10 μL spot
[20] = 10 μL spot, incubation period of 1 day
[21] = Burkholderia cepacia ATCC 10856

Compound: O=C(O)c1ccccc1O [2% salicylic acid, salicylic acid]
- blood hemolysis (red blood cells): little to no hemolysis

Compound: CC[C@H](C)[C@H](N)C1=N[C@H](C(=O)N[C@@H](CC(C)C)C(=O)N[C@H](CCC(=O)O)C(=O)N[C@H](C(=O)N[C@H]2CCCCNC(=O)[C@H](CC(N)=O)NC(=O)[C@@H](CC(=O)O)NC(=O)[C@H](Cc3cnc[nH]3)NC(=O)[C@@H](Cc3ccccc3)NC(=O)[C@H]([C@@H](C)CC)NC(=O)[C@@H](CCCN)NC2=O)[C@@H](C)CC)CS1 [Bacitracin] ({Ileψ(thiazoline)Cys}-L[dE]IK[dOrn]I[dF]H[dD]N; lactam 4-C)
- antibacterial activity ([1]; M. abscessus (ATCC 19977)): −
- antibacterial activity [1, 15]: −
- antibacterial activity [2, 16]: −
- antibacterial activity ([2]; E. coli O157:H7, 10 μL spot): −
- antibacterial activity ([3]; P. aeruginosa MDR (ATCC 2114)): −
- antibacterial activity ([3]; P. aeruginosa MDR ATCC 2114): −
- antibacterial activity ([4]; A. Baumannii MDR (ATCC 1797)): −
- antibacterial activity ([4]; A. baumannii MDR ATCC 1797): −
- antibacterial activity [5]: −
- killing of VRE ([6]; incubation period of 1 day): killed
- antibacterial activity ([6]; VRE (ATCC 51299)): −
- antibacterial activity ([6]; VRE): −
- antibacterial activity (MRSA (ATCC BAA44); MRSA (ATCC BAA44), 10 μL spot): −
- antibacterial activity (MRSA (ATCC BAA44); MRSA ATCC BAA-44, 10 μL spot): −
- antibacterial activity (Yesenia pestis (Kimo 6)): −
- antibacterial activity [7]: −
- antibacterial activity (Streptococcus pyogenes; S. pyogenes): −
- antibacterial activity (Streptococcus pyogenes; [17]): −
- antibacterial activity [8, 18]: −
- antibacterial activity [8, 19]: −

Compound: C/C(=C\C(=O)OCCCCCCCCC(=O)O)C[C@@H]1OC[C@H](C[C@@H]2O[C@H]2[C@@H](C)[C@H](C)O)[C@@H](O)[C@H]1O [Mupirocin]
- antibacterial activity ([1]; M. abscessus (ATCC 19977)): −
- antibacterial activity [1, 15]: −
- killing of multi-drug resistant E. coli (AR 0348) [9]: fully killed
- killing of Escherichia coli (O157:H7) [2, 20]: killed
- antibacterial activity [2, 16]: +
- antibacterial activity ([2]; E. coli O157:H7, 10 μL spot): +
- killing of Escherichia coli (O157:H7) ([2]; after 5 days of incubation): only formulations that killed
- regrowth of Escherichia coli (O157:H7) ([2]; after 5 days of incubation): not observed
- killing of multi-drug resistant Pseudomonas aeruginosa ([3]; incubation period of 1 day (FIG. 55)): killed
- antibacterial activity ([3]; P. aeruginosa MDR (ATCC 2114)): +
- antibacterial activity ([3]; P. aeruginosa MDR ATCC 2114): +
- killing of MRSA BAA-1717 (USA 300) (MRSA BAA-1717 (USA 300)): killed
- killing of multi-drug resistant E. coli (AR 0346) [10]: fully killed
- killing of multi-drug resistant Burkholderia cepacia [11]: killed
- antibacterial activity ([11]; B. cepacia (ATCC 10856)): +
- antibacterial activity [11, 21]: +
- killing of A. baumannii ([4]; incubation period of 1 day (FIG. 54)): killed
- antibacterial activity ([4]; A. Baumannii MDR (ATCC 1797)): −
- antibacterial activity ([4]; A. baumannii MDR ATCC 1797): −
- antibacterial activity [5]: +
- antibacterial activity ([6]; VRE (ATCC 51299)): −
- antibacterial activity ([6]; VRE): −
- killing of Bacillus subtilis [12]: killed
- killing of MCR-1 E. coli (AR 0350; colisitin-resistance only) (MCR-1 E. coli (AR 0350)): fully killed
- antibacterial activity [13]: +
- killing of MRSA (MRSA (ATCC BAA44); 10 μL spot, incubation period of 1 day (FIG. 52)): killed
- antibacterial activity (MRSA (ATCC BAA44); MRSA (ATCC BAA44), 10 μL spot): +
- antibacterial activity (MRSA (ATCC BAA44); MRSA ATCC BAA-44, 10 μL spot): +
- killing of MRSA (MRSA (ATCC BAA44); after 4 days of incubation): only formulations that killed
- regrowth of MRSA (MRSA (ATCC BAA44); after 4 days of incubation): not observed
- antibacterial activity [14]: +
- efficacy against Yesenia pestis (Kimo 6), comparison with antibiotics (Yesenia pestis (Kimo 6)): more effective than MM8
- antibacterial activity (Yesenia pestis (Kimo 6)): +
- antibacterial activity [7]: −
- killing of Streptococcus pyogenes (Streptococcus pyogenes): killed
- antibacterial activity (Streptococcus pyogenes; S. pyogenes): +
- antibacterial activity (Streptococcus pyogenes; [17]): +
- killing of S. pyogenes (Streptococcus pyogenes): further killed
- killing of CRE NDM-1 MDR [8, 20]: killed
- antibacterial activity [8, 18]: −
- antibacterial activity [8, 19]: −
- killing of CRE NDM-1 MDR ([8]; after 5 days of incubation): only formulations that killed
- regrowth of CRE NDM-1 MDR ([8]; after 5 days of incubation): not observed

Compound: O=C(OOC(=O)c1ccccc1)c1ccccc1 [benzoyl peroxide]
- blood hemolysis (red blood cells): complete hemolysis

Compound: Neomycin
- antibacterial activity ([1]; M. abscessus (ATCC 19977)): −
- antibacterial activity [1, 15]: −
- killing of Escherichia coli (O157:H7) [2, 20]: killed
- antibacterial activity [2, 16]: +
- antibacterial activity ([2]; E. coli O157:H7, 10 μL spot): +
- killing of Escherichia coli (O157:H7) ([2]; after 5 days of incubation): only formulations that killed
- regrowth of Escherichia coli (O157:H7) ([2]; after 5 days of incubation): not observed
- antibacterial activity ([3]; P. aeruginosa MDR (ATCC 2114)): −
- antibacterial activity ([3]; P. aeruginosa MDR ATCC 2114): −
- killing of multi-drug resistant Burkholderia cepacia [11]: killed
- antibacterial activity ([11]; B. cepacia (ATCC 10856)): −
- antibacterial activity [11, 21]: −
- antibacterial activity ([4]; A. Baumannii MDR (ATCC 1797)): −
- antibacterial activity ([4]; A. baumannii MDR ATCC 1797): −
- antibacterial activity [5]: −
- antibacterial activity ([6]; VRE (ATCC 51299)): −
- antibacterial activity ([6]; VRE): −
- killing of Bacillus subtilis [12]: killed
- antibacterial activity (MRSA (ATCC BAA44); MRSA (ATCC BAA44), 10 μL spot): −
- antibacterial activity (MRSA (ATCC BAA44); MRSA ATCC BAA-44, 10 μL spot): −
- efficacy against Yesenia pestis (Kimo 6), comparison with antibiotics (Yesenia pestis (Kimo 6)): more effective than MM8
- antibacterial activity (Yesenia pestis (Kimo 6)): −
- antibacterial activity [7]: +
- killing of Streptococcus pyogenes (Streptococcus pyogenes): killed
- regrowth of Streptococcus pyogenes colonies in treated area (Streptococcus pyogenes; FIG. 59, 7 days): colonies invaded
- antibacterial activity (Streptococcus pyogenes; S. pyogenes): +
- antibacterial activity (Streptococcus pyogenes; [17]): +
- killing of S. pyogenes (Streptococcus pyogenes): further killed
- antibacterial activity [8, 18]: −
- antibacterial activity [8, 19]: −
